Assays:
Assay type in all cases: biochemical
[1] = biological target: PI3K β (p110β/p85α)(h) (Homo sapiens, UniProt P42338); test: Assay for phosphatidylinositol 3-kinase beta (PI3Kβ) activity, PI3K-HTRF kit; details: TR-FRET; enzyme 0.725 μg/ml, 10 μM PIP2, 10 μM ATP
Description: [The source words this procedure for another target and says it was used here with some conditions changed.] (§1) The compounds of the present invention were assayed for the activity of phosphatidylinositol 3-kinase gamma (PI3Kγ) by using a PI3K enzyme-homogenous time resolved fluorescence (PI3K-HTRF) kit, which is available from Upstate (Millipore Co, Billerica, Mass., USA).
(§2) Three kinds of buffer solutions including a phosphorylation reaction solution (a reaction buffer containing 40 mM MgCl2 which is available from Upstate was diluted 4 times and added with 5 mM DTT), a stop solution (STOP A and B solutions which are available from Upstate were mixed at a ratio of 3:1) and a fluorescence detection solution (Detection solutions A, B and C which are available from Upstate were mixed at a ratio of 1:1:18) were prepared. 1 mM of PIP2 substrate (phosphatidylinositol 4,5 biphosphate; Upstate), PI3Kγ (#14-558; Upstate) enzyme and 10 mM ATP (Sigma Aldrich Co., St. Louis, Mo., USA) were prepared. Each of PI3Kγ, 1 mM PIP2 and 10 mM ATP was diluted to 2.9 μg/ml (final reaction concentration: 1.45 μg/ml), 20 μM (final reaction concentration: 10 μM) and 40 μM (final reaction concentration: 10 μM), respectively. The buffer solution used for dilution and preparation process was the phosphorylation reaction solution. The stop solution was used for the termination of phosphorylation reaction, and the fluorescence detection solution was used for the detection of time-resolved fluorescence signals.
(§3) Each test sample was transferred to a 384 well low flange white flat bottom microplate (#3572, Corning Life Sciences, Lowell, Mass., USA) by using a multi 8-channel (Pipetman Neo multi 8×20, Gilson, Middleton, Wis., USA) to make a final phosphorylation reaction volume of 20 μl per each well. For the negative control, 5 μl of 14.4% DMSO and 10 μl of PIP2 substration solution were used, and 5 μl of 14.4% DMSO and 10 μl of PIP2/PI3Kγ mixed solution were used as the positive control. For the test group, 5 μl of a solution prepared by dissolving the compound obtained in Example in DMSO and 10 μl of PIP2/PI3Kγ mixed solution were used. Before the initiation of the phosphorylation reaction, sample compounds were pretreated with the enzyme for approximately 10 minutes, and then the phosphorylation reaction was induced by adding 5 μl of ATP. Since each of the test compound and ATP takes up 25% of the total volume, and PIP2 and PI3Kγ take up 50% of the total volume during the reaction, each solution was concentrated 4 and 2 times, respectively, before mixing the solutions. Subsequently, the test sample was gently shook for 3 minutes and subjected to a phosphorylation reaction for 90 minutes at room temperature, which was then added with 5 μl of the stop solution to terminate the phosphorylation reaction. In order to induce a time-resolved fluorescence reaction, 5 μl of the fluorescence detection solution was added to the sample. The fluorescence detection solution contains biotin-phosphatidylinositol 3,4,5-triphosphate (PIP3), streptavidin-labeled Allopycocyanin (APC) and europium-labeled Pleckstrin homology domain (the PIP3 binds to PH domain), and the time-resolved fluorescence reaction is induced by a series of reaction of PH domain and PIP3, and biotin and streptavidin. The sample was left to stand for 6 hours at room temperature, and the time-resolved fluorescence resonance energy transfer (TR-FRET) rate was measured (emission wavelength: 665 nm, 620 nm, excitation wavelength: 340 nm) by using a Flexstation3 Micro plate reader (Molecular Devices, USA). TR-FRET Rate and TR-Inhibition Rate were calculated based on Equations 1 and 2 below, and the results are expressed in IC50, which is the concentration of a compound that inhibits 50% of PI3Kγ activity in vitro. TR-FRET Rate=(665 nm emission wavelength/620 nm emission wavelength)×10000 <Equation 1> TR-FRET Inhibition Rate=[(TR-FRET Rate of Sample−TR-FRET Rate of Negative Control)/(TR-FRET Rate of Positive Control−TR-FRET Rate of Negative Control)]×100 <Equation 2> […]

[2] = biological target: PI3Kγ (p120γ)(h) (Homo sapiens, UniProt P48736); test: Assay for phosphatidylinositol 3-kinase gamma (PI3Kγ) activity, PI3K-HTRF kit; details: TR-FRET; enzyme 1.45 μg/ml, 10 μM PIP2, 10 μM ATP
Chain of PI3Kγ (p120γ)(h) (P48736 whole entry): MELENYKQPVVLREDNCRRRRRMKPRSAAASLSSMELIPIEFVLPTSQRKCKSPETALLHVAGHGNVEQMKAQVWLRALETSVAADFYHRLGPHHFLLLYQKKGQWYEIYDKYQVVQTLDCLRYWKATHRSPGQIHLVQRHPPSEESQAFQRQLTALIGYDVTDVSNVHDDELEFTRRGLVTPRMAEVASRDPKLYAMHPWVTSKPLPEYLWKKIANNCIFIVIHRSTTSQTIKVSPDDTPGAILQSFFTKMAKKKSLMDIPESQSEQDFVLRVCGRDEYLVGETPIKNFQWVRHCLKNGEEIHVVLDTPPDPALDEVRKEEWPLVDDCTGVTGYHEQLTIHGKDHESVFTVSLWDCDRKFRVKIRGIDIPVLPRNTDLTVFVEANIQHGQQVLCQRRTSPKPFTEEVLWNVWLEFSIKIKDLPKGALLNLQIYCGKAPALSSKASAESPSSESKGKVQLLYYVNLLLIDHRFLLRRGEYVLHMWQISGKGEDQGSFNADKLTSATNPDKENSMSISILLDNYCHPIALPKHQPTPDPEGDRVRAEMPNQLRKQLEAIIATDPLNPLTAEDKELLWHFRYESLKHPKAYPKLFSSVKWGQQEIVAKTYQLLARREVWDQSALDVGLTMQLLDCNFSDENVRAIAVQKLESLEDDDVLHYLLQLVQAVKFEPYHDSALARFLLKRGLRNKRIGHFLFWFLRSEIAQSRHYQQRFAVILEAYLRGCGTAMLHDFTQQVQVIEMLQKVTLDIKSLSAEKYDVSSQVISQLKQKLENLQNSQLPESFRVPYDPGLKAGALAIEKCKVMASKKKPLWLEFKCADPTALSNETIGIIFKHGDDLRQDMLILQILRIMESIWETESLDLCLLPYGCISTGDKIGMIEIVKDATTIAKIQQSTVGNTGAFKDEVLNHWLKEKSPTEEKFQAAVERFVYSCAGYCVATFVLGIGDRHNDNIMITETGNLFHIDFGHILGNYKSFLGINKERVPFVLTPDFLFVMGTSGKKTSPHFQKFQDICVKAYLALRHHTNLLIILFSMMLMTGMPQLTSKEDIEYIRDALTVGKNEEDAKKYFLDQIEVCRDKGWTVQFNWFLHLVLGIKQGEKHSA
Description: as §1, §2
(§4) Each test sample was transferred to a 384 well low flange white flat bottom microplate (#3572, Corning Life Sciences, Lowell, Mass., USA) by using a multi 8-channel (Pipetman Neo multi 8×20, Gilson, Middleton, Wis., USA) to make a final phosphorylation reaction volume of 20 μl per each well. For the negative control, 5 μl of 14.4% DMSO and 10 μl of PIP2 substration solution were used, and 5 μl of 14.4% DMSO and 10 μl of PIP2/PI3Kγ mixed solution were used as the positive control. For the test group, 5 μl of a solution prepared by dissolving the compound obtained in Example in DMSO and 10 μl of PIP2/PI3Kγ mixed solution were used. Before the initiation of the phosphorylation reaction, sample compounds were pretreated with the enzyme for approximately 10 minutes, and then the phosphorylation reaction was induced by adding 5 μl of ATP. Since each of the test compound and ATP takes up 25% of the total volume, and PIP2 and PI3Kγ take up 50% of the total volume during the reaction, each solution was concentrated 4 and 2 times, respectively, before mixing the solutions. Subsequently, the test sample was gently shook for 3 minutes and subjected to a phosphorylation reaction for 90 minutes at room temperature, which was then added with 5 μl of the stop solution to terminate the phosphorylation reaction. In order to induce a time-resolved fluorescence reaction, 5 μl of the fluorescence detection solution was added to the sample. The fluorescence detection solution contains biotin-phosphatidylinositol 3,4,5-triphosphate (PIP3), streptavidin-labeled Allopycocyanin (APC) and europium-labeled Pleckstrin homology domain (the PIP3 binds to PH domain), and the time-resolved fluorescence reaction is induced by a series of reaction of PH domain and PIP3, and biotin and streptavidin. The sample was left to stand for 6 hours at room temperature, and the time-resolved fluorescence resonance energy transfer (TR-FRET) rate was measured (emission wavelength: 665 nm, 620 nm, excitation wavelength: 340 nm) by using a Flexstation3 Micro plate reader (Molecular Devices, USA). TR-FRET Rate and TR-Inhibition Rate were calculated based on Equations 1 and 2 below, and the results are expressed in IC50, which is the concentration of a compound that inhibits 50% of PI3Kγ activity in vitro. TR-FRET Rate=(665 nm emission wavelength/620 nm emission wavelength)×10000 <Equation 1> TR-FRET Inhibition Rate=[(TR-FRET Rate of Sample−TR-FRET Rate of Negative Control)/(TR-FRET Rate of Positive Control−TR-FRET Rate of Negative Control)]×100 <Equation 2>

[3] = biological target: PI3Kδ (p110δ/p85α)(h) (Homo sapiens, UniProt O00329); test: Assay for phosphatidylinositol 3-kinase delta (PI3Kδ) activity, PI3K-HTRF kit; details: TR-FRET; enzyme 0.725 μg/ml, 10 μM PIP2, 10 μM ATP
Chain of PI3Kδ (p110δ/p85α)(h) (O00329 whole entry): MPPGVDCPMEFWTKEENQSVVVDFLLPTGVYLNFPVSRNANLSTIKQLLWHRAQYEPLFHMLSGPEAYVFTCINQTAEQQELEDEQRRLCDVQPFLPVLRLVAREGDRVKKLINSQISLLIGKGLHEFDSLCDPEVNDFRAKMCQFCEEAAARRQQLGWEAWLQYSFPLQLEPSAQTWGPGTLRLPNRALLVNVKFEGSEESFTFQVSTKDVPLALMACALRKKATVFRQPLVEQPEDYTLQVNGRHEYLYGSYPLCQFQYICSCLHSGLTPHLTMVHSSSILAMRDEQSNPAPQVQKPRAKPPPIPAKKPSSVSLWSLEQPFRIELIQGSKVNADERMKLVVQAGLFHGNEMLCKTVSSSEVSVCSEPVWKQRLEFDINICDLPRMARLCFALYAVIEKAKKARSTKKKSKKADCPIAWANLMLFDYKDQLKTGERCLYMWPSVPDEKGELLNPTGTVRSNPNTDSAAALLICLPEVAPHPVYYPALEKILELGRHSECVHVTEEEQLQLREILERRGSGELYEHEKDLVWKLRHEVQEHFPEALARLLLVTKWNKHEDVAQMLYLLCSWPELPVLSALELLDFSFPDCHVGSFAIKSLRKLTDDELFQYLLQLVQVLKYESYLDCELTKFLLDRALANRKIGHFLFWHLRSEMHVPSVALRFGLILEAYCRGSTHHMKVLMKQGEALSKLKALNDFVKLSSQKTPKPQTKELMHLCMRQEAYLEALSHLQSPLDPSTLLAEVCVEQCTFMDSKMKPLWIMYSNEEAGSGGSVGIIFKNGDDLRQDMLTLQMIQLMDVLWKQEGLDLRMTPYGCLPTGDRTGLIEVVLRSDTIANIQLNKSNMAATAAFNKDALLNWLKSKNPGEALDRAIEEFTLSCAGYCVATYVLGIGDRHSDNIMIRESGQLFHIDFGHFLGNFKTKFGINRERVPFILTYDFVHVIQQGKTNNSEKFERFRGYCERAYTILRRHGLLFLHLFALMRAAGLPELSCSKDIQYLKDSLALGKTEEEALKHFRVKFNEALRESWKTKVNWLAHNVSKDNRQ
Chain of PI3Kδ (p110δ/p85α)(h) (P27986 whole entry partner): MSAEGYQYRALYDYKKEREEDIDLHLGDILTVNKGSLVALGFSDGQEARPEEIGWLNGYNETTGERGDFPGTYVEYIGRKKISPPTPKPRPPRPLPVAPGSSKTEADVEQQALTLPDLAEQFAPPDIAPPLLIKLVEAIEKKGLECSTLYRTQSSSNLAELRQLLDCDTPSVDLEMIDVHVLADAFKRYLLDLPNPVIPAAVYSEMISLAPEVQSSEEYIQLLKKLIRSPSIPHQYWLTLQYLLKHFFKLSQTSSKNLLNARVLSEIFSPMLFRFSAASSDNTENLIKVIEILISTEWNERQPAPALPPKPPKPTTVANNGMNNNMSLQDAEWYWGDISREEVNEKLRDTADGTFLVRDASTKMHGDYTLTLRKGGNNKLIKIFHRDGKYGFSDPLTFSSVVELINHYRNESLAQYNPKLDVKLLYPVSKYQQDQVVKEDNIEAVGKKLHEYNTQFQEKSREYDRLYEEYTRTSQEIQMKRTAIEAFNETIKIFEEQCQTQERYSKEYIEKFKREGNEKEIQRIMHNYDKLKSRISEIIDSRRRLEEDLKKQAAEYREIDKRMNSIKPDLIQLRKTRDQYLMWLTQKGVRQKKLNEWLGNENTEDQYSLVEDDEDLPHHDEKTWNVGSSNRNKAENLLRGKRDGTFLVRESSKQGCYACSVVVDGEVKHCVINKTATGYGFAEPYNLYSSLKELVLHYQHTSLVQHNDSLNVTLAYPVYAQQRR
Description: [The source words this procedure for another target and says it was used here with some conditions changed.] as §1, §2, §3

[4] = biological target: PI3Kα (p110α/p85α)(h) (Homo sapiens, UniProt P42336); test: Assay for phosphatidylinositol 3-kinase alpha (PI3Kα) activity, PI3K-HTRF kit; details: TR-FRET; enzyme 0.3625 μg/ml, 10 μM PIP2, 10 μM ATP
Chain of PI3Kα (p110α/p85α)(h) (P42336 whole entry): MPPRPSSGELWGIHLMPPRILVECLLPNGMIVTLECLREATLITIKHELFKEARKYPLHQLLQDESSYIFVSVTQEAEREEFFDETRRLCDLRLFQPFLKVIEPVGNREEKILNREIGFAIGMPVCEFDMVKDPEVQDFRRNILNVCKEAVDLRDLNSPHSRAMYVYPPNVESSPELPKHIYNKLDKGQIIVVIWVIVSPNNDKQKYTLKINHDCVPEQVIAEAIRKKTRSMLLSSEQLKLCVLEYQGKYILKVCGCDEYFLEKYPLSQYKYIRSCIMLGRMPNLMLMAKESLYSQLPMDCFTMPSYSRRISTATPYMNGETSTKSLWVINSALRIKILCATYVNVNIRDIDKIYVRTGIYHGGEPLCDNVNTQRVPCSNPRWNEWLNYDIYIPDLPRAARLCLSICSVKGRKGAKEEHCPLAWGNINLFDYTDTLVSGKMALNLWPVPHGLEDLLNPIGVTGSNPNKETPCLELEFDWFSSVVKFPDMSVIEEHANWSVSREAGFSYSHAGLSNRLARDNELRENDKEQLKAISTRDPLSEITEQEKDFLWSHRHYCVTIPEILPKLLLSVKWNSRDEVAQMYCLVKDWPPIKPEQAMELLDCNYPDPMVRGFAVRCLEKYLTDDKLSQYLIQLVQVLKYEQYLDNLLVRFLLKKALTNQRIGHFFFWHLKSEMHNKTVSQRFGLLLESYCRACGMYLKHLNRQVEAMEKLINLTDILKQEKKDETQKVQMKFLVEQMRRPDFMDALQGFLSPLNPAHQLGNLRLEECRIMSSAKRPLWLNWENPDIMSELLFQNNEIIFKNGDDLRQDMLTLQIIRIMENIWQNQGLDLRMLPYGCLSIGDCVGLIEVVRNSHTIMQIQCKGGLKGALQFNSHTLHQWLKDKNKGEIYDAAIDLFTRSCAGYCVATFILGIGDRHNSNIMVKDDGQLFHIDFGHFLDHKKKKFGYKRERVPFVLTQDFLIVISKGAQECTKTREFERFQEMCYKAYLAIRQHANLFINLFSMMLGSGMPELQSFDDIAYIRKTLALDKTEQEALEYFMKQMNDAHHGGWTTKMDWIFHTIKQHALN
Chain of PI3Kα (p110α/p85α)(h) (P27986 whole entry partner): as the sequence (P27986 whole entry partner) above
Description: [The source words this procedure for another target and says it was used here with some conditions changed.] as §1, §2, §4

Chain of PI3K β (p110β/p85α)(h) (P42338 whole entry): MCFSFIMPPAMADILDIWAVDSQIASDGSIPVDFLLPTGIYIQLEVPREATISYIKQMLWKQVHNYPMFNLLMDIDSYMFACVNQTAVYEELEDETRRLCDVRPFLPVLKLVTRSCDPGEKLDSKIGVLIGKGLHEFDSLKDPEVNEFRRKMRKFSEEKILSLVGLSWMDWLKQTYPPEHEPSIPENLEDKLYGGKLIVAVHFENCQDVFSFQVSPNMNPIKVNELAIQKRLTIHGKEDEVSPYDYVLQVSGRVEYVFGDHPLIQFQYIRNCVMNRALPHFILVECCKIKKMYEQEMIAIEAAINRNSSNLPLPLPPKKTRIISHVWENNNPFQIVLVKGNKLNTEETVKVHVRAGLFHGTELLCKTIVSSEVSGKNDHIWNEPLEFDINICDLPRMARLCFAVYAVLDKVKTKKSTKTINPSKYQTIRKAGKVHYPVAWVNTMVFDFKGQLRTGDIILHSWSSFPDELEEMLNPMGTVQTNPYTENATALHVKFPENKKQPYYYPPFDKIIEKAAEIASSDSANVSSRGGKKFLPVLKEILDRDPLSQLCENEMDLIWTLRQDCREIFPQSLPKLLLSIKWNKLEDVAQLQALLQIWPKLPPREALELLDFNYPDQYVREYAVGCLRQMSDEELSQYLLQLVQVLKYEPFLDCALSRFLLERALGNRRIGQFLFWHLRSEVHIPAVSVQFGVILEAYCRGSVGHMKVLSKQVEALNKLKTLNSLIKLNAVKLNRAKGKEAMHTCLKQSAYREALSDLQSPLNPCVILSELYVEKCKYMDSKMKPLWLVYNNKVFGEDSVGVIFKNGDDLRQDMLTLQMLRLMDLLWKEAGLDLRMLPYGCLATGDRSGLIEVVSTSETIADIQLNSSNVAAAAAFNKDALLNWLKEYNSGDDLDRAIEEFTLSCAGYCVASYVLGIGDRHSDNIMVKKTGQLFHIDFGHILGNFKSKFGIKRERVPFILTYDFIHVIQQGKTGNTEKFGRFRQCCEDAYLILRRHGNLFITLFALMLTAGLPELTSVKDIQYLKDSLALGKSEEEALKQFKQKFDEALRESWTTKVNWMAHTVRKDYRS
Chain of PI3K β (p110β/p85α)(h) (P27986 whole entry partner): as the sequence (P27986 whole entry partner) above

Compound | IC50 [1] | IC50 [2] | IC50 [3] | IC50 [4]
2-Thioxo-5-[{7-(m-tolylethynyl)furo[3,2-c]pyridin-2-yl}methyl]thiazolidin-4-one [Example 546] | 5500 nM | 3 nM | > 10000 nM | 360 nM
5-[{7-(p-Tolylethynyl)furo[3,2-c]pyridin-2-yl}methyl]thiazolidine-2,4-dione [Example 520] | 9740 nM | 11 nM | > 10000 nM | 15 nM
O=C1NC(=O)/C(=C/c2cc3cncc(-c4ccc(F)cc4F)c3o2)S1 [Example 2, (Z)-5-[{7-(2,4-Difluorophenyl)furo[3,2-c]pyridin-2-yl}methylene]thiazolidine-2,4-dione] | 208 nM | 654 nM | 117 nM | 35 nM
O=C1NC(=O)/C(=C/c2cc3cncc(-c4ccc(O)nc4)c3o2)S1 [Example 11, (Z)-5-[{7-(6-Hydroxypyridin-3-yl)furo[3,2-c]pyridin-2-yl}methylene]thiazolidine-2,4-dione] | 48 nM | 15 nM | 168 nM | 8 nM
COc1ccc(-c2cncc3cc(/C=C4\SC(=O)NC4=O)oc23)cc1 [Example 25, (Z)-5-[{7-(4-Methoxyphenyl)furo[3,2-c]pyridin-2-yl}methylene]thiazolidine-2,4-dione] | > 10000 nM | 5 nM | > 10000 nM | 6 nM
COc1ccc(-c2cncc3cc(/C=C4\SC(=O)NC4=O)oc23)cn1 [Example 30, (Z)-5-[{7-(6-Methoxypyridin-3-yl)furo[3,2-c]pyridin-2-yl}methylene]thiazolidine-2,4-dione] | 1370 nM | 6 nM | 460 nM | 40 nM
COc1ccc(-c2cncc3cc(/C=C4\SC(=O)NC4=O)oc23)cc1OC [Example 33, (Z)-5-[{7-(3,4-Dimethoxyphenyl)furo[3,2-c]pyridin-2-yl}methylene]thiazolidine-2,4-dione] | 77 nM | 9 nM | 37 nM | 8 nM
CS(=O)(=O)c1ccc(-c2cncc3cc(/C=C4\SC(=O)NC4=O)oc23)cc1 [Example 40, (Z)-5-([7-{4-(Methylsulfonyl)phenyl}furo[3,2-c]pyridin-2-yl]methylene)thiazolidine-2,4-dione] | 177 nM | 28 nM | 590 nM | 8 nM
CSc1ccc(-c2cncc3cc(/C=C4\SC(=O)NC4=O)oc23)cn1 [Example 41, (Z)-5-([7-{6-(Methylthio)pyridin-3-yl}furo[3,2-c]pyridin-2-yl]methylene)thiazolidine-2,4-dione] | 100 nM | 13 nM | 322 nM | 12 nM
COc1c(C)cc(-c2cncc3cc(/C=C4\SC(=O)NC4=O)oc23)cc1C [Example 73, (Z)-5-[{7-(4-Methoxy-3,5-dimethylphenyl)furo[3,2-c]pyridin-2-yl}methylene]thiazolidine-2,4-dione] | > 10000 nM | 10 nM | > 10000 nM | 10 nM

Next, values leading:

IC50 [1] | IC50 [2] | IC50 [3] | IC50 [4] | Compound
3 nM | 14 nM | 2350 nM | 2 nM | O=C1NC(=O)/C(=C/c2cc3cncc(-c4cccc(OCc5ccccc5)c4)c3o2)S1 [Example 6, (Z)-5-([7-{3-(Benzyloxy)phenyl}furo[3,2-c]pyridin-2-yl]methylene)thiazolidine-2,4-dione]
572 nM | 28 nM | > 10000 nM | 7 nM | Cn1cc(-c2cncc3cc(/C=C4\SC(=O)NC4=O)oc23)cn1 [Example 12, (Z)-5-[{7-(1-Methyl-1H-pyrazol-4-yl)furo[3,2-c]pyridin-2-yl}methylene]thiazolidine-2,4-dione]
> 10000 nM | 29 nM | 149 nM | 6 nM | O=C1NC(=O)/C(=C/c2cc3cncc(-c4cc5ccccc5s4)c3o2)S1 [Example 14, (Z)-5-[{7-(Benzo[b]thiophen-2-yl)furo[3,2-c]pyridin-2-yl}methylene]thiazolidine-2,4-dione]
> 10000 nM | 9 nM | > 10000 nM | 43 nM | CSc1ccc(-c2cncc3cc(/C=C4\SC(=O)NC4=O)oc23)cc1 [Example 23, (Z)-5-([7-{4-(Methylthio)phenyl}furo[3,2-c]pyridin-2-yl]methylene)thiazolidine-2,4-dione]
14 nM | 154 nM | > 10000 nM | 86 nM | O=C1NC(=O)/C(=C/c2cc3cncc(-c4ccc5c(c4)OCO5)c3o2)S1 [Example 36, (Z)-5-[{7-(Benzo[d][1,3]dioxol-5-yl)furo[3,2-c]pyridin-2-yl}methylene]thiazolidine-2,4-dione]
> 10000 nM | 12 nM | > 10000 nM | 5 nM | CCOc1ccc(-c2cncc3cc(/C=C4\SC(=O)NC4=O)oc23)cc1Cl [Example 51, (Z)-5-[{7-(3-Chloro-4-ethoxyphenyl)furo[3,2-c]pyridin-2-yl}methylene]thiazolidine-2,4-dione]
293 nM | 96 nM | 4230 nM |  | O=C1NC(=O)/C(=C/c2cc3cncc(-c4cccc(OCC(F)(F)F)c4)c3o2)S1 [Example 110, (Z)-5-([7-{3-(2,2,2-Trifluoroethoxyl)phenyl}furo[3,2-c]pyridin-2-yl]methylene)thiazolidine-2,4-dione]

Source: patent publication US9493478B2, “Fused ring compound containing furan or salt thereof and pharmaceutical composition comprising same” (YUHAN CORPORATION, priority 2012, dated 2016)
